Reference: patent US20130123386A1, “HINDERED PRIMARY CHLORINATED AMINE IN A LATEX FORMULATION” (ROHM AND HAAS COMPANY, priority 2011, published 2013)

Assays:
[1] = Heat aging of amine/latex binder preparation at 50° C. for 14 days, concentration by GC; assay type: physicochemical; conditions: latex binder
Description: A 20.0-g dispersion of N-chloro-2,4,4-trimethylpentan-2-amine, 18% sodium lauryl sulfate, and water (C1-TOA, 0.47 g; SLS, 1.29 g; H2O, 18.24.g) with a particle size in the range of 100 to 850 nm was added to a butyl acrylate/methyl methacrylate/methacrylic acid latex binder (180 g; 50/49/1 percentages by weight) stabilized by SLS (1 weight percent) and Disponil FES 32 emulsifier (1 weight percent). The Cl-TOA/binder preparation was heat aged at 50° C. for 14 days. The concentration of Cl-TOA prior to the heat aging step was 2350 ppm (14 mM). The concentration of Cl-TOA after the heat-aging step was measured by GC to be ˜160 ppm based on the volume of the binder.
The procedures were carried out substantially as described for Example 1 except that, after heat-aging, a diluted sample of KATHON™ LX Microbicide Concentrate (A Trademark of The Dow Chemical Company or Its Affiliates) was mixed in with the binder/Cl-TOA preparation by shaking the samples at 200 rpm for 20 min, giving a final dosage of ˜5 ppm active. The concentration of Cl-TOA after the heat-aging step was measured by GC to be ˜160 ppm based on the volume of the binder.
The procedure of Example 2 was repeated except that the constituents of the added dispersion were Cl-TOA (0.19 g), SLS (0.52 g), and water (19.29 g). The concentration of Cl-TOA after the heat-aging step was estimated to be ˜65 ppm based on the volume of the binder.
(TOA, 0.38 g; SLS, 1.06 g; H2O, 18.56 g) with a particle size in the range of 100 to 850 nm was added to a butyl acrylate/methyl methacrylate/methacrylic acid latex binder (180 g; 50/49/1 percentages by weight) stabilized by SLS (1 weight percent) and Disponil FES 32 emulsifier (1 weight percent). The TOA/binder preparation was heat aged at 50° C. for 14 days. The concentration of TOA before heat aging was 1900 ppm (14 mM), and GC measurements indicated no change in TOA concentration as a result of heat aging. […]

[2] = tested on: standard industrial inoculum; experiment: Preservative efficacy (challenge) testing of latex binder samples, growth rating of streaked TSA plates; assay type: cell-based
Description: The samples prepared in accordance with Examples 1-4 and Comparative Example 1 were subjected to preservative efficacy testing in accordance with the following procedure:
A 1-g aliquot was removed from each sample and submitted for biocide analysis by a standard HPLC procedure to check the amount of isothiazolone microbicide dosed. The samples were then dosed with the standard industrial inoculum at a level of 0.1 mL/10 g.
All bacteria and yeast were stored at −70° C. to −80° C. in broth and glycerol (15%) prior to inoculum preparation. Molds were maintained on potato dextrose agar (PDA) plates at 2-5° C. The bacteria and yeast cultures were thawed and 0.1-mL aliquots of each were transferred into separate 10-mL aliquots of tryptic soy broth (TSB). These cultures were incubated at 30° C. for 18-24 h, with shaking at 150-200 rpm.
A volume of 10 mL of sterile phosphate buffer was measured out. The two mold strains were added by wetting sterile swabs in phosphate buffer, or water, and then rolling the swabs over the molds, covering an area of approximately 1 in^2 on each plate. The mold-covered swabs were then immersed in the 10 mL of phosphate buffer and agitated to suspend the spores. A volume of 0.1 mL of each bacterial culture, and a volume of 1 mL of each yeast culture, was then added to the mold mixture. The inoculum was blended by vortexing briefly. The organisms used in the inoculum and their corresponding American Type Culture Collection numbers (ATCC #) are shown in Table 1.
Samples were inverted several times to mix in the microorganisms. This inoculation challenged each test sample with 10^6-10^7 colony forming units/mL latex. Using a 10-μL sterile loop, latex samples were streaked onto tryptic soy agar (TSA) plates. This procedure was carried at t=0 and at several other time points during the first ˜5 h of the experiment to obtain speed-of-kill data. Additional time points were taken at t=1, 2 and 7 days. Between time points, all samples were stored at 30° C. In addition, all streaked TSA plates were incubated at 30° C. […]

Compound | Concentration of Cl-TOA after the heat-aging step (estimated) ([1]; 940 ppm (6 mM) before heat aging, estimated, based on the volume of the binder (Example 3)) | Concentration of Cl-TOA after the heat-aging step ([1]; 2350 ppm (14 mM) before heat aging, measured by GC, based on the volume of the binder (Examples 1 and 2)) | Efficacy as a quick-kill preservative ([2]; alone or in combination with the KATHON LX Microbicide, heat-aged latex binder) | Change in TOA concentration as a result of heat aging ([1]; 1900 ppm (14 mM) before heat aging, GC (Example 4)) | Biocidal activity ([2]; TOA itself) | Effect as an adjuvant for the biocide ([2]; with KATHON LX, compared to the microbiocide alone (Comp. Ex. 1))
CC(C)(C)CC(C)(C)NCl [Cl-TOA, N-chloro-2,4,4-trimethylpentan-2-amine] | ~65 ppm | ~160 ppm | effective |  |  | 
CC(C)(C)CC(C)(C)N [TOA, 2,4,4-trimethylpentan-2-amine] |  |  |  | no change | little or no biocidal activity | effective as an adjuvant
